# According to patent US12384801B2, “Benzothiophene, thienopyridine and thienopyrimidine derivatives for the modulation of sting” (CTXT PTY LTD, priority 2019, dated 2025):
# Experiments:
# [1] = target: T1, human STING (HAQ) (Homo sapiens (Human), UniProt Q86WV6, G230A/H232R/R293Q); assay: Differential scanning fluorimetry (DSF), huSTING (HAQ); format: binding; details: compound 100 μM, 2 μM protein, Tm with ligand minus Tm of protein alone (1% DMSO)
# Experimental: (§1) Data were analyzed using “Meltdown analysis” protocol described by Rosa (2015).
# [2] = target: T2, human STING (WT) (Homo sapiens (Human), UniProt Q86WV6, H232R); assay: Differential scanning fluorimetry (DSF), huSTING (WT); format: binding; details: compound 100 μM, 2 μM protein, Tm with ligand minus Tm of protein alone (1% DMSO)
# Experimental: as §1
# [3] = target: human HAQ isoform of STING (Homo sapiens (Human), UniProt Q86WV6, G230A/H232R/R293Q/R71H); assay: THP-1 STING Lucia ISG reporter cell line assay; format: cell-based; details: 24 h incubation, luminescence, normalized to ML RR-S2 CDA 40 μM; read-out: EC50 THP-I STING Lucia ISG cells
# Experimental: (§2) THP-1 STING Lucia ISG cells (InvivoGen #thpl-isg) were cultured in RPMI-1640 containing 2 mM L-glutamine, 25 mM HEPES, 100 μg/mL Normocin (InvivoGen) and 10% heat-inactivated FBS. Cells were seeded at a density of 7×10^5 cells/mL, maintained at 37° C./5% CO2, and passaged every 3-4 days. Selection pressure was maintained by the addition of 100 μg/mL Zeocin every second passage.
# (§3) Assay conditions: cells were harvested and resuspended at a concentration of 5×10^5 cells/mL in fresh growth media. Of this cell preparation 20 μL per well was dispensed into 384 well cell culture plates (Greiner, #781098X) and incubated at 37° C./5% CO2 for 2 hours.
# (§4) Concentration Response Curves (commonly 11 doses) were prepared by 2.5 fold serial dilution starting from 10 mM compound stock solution in DMSO. Compound dilutions were transferred into the cell culture plates using a pintool (0.1 μL transfer), control wells were matched for DMSO. Positive control wells received ML RR-S2 CDA (Med Chem Express HY12885B) in 5 μL of media to a final concentration of 40 μM. All other wells received additional 5 μL of media only to equalize volume. The plates were incubated for 24 h at 37° C./5% CO2.
# (§5) For the detection step, QUANTI-Luc (InvivoGen #rep-qlc1) was prepared according to manufacturer's instruction and 10 μL were added per well to the culture plates. Plates were shaken for ten seconds on an orbital shaker and left in the dark at room temperature for two minutes, before luminescence was read on a Perkin Elmer Envision plate reader.
# (§6) Data analysis: Luminescence raw data was normalized % activity relative to the signal of the positive control wells and negative control wells which were not treated with compound. The following formula was used to calculate normalized % activity from raw signals: % activity=(sample−negative)/(positive−negative)
# (§7) The THP-1 STING Lucia ISG cell EC50 provides an assessment of activity at the human HAQ isoform of STING. For assessing compound activity against the WT human STING isoform, an equivalent method was conducted where the cells used were THP-1-Dual KI-hSTING-R232 (InvivoGen #thpd-r232).
# [4] = target: WT human STING isoform (Homo sapiens (Human), UniProt Q86WV6, H232R); assay: THP-1-Dual KI-hSTING-R232 reporter cell line assay; format: cell-based; details: 24 h incubation, luminescence, normalized to ML RR-S2 CDA 40 μM; read-out: EC50 THP-1 Dual KI-hSTING-R232 cells
# Experimental: as §2, §3, §4, §5, §6, §7
# [5] = target: T2, human STING (WT); assay: Surface Plasmon Resonance (SPR), STING (WT); details: read-out: SPR (WT) KD; biotinylated STING on streptavidin chip, 8° C.
# [6] = target: T1, human STING (HAQ); assay: Surface Plasmon Resonance (SPR), STING (HAQ); details: read-out: SPR (HAQ) KD; biotinylated STING on streptavidin chip, 8° C.
# Sequence of human HAQ isoform of STING (Q86WV6 whole entry R71H/G230A/H232R/R293Q, canonical isoform): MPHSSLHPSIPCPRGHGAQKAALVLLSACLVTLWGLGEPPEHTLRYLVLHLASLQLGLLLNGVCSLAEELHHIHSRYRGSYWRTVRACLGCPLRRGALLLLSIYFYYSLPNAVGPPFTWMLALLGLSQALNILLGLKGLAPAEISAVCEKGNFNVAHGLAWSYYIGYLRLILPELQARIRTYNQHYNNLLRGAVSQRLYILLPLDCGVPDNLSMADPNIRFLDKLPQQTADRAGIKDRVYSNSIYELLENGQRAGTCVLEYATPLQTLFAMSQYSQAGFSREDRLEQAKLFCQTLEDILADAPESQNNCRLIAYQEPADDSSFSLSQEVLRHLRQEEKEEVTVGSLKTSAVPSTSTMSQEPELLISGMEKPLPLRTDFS
# T2 sequence (Q86WV6 149-345 H232R): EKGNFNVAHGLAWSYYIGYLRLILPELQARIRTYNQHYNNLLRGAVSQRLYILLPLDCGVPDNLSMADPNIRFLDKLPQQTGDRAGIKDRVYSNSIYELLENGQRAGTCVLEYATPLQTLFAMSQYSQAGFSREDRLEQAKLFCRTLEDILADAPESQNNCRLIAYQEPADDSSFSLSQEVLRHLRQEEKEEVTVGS
# Sequence of WT human STING isoform (Q86WV6 whole entry H232R, canonical isoform): as the sequence (Q86WV6 whole entry R71H/G230A/H232R/R293Q, canonical isoform) above, with H71R, A230G, Q293R counted along it
# T1 sequence (Q86WV6 149-345 G230A/H232R/R293Q): as the sequence (Q86WV6 149-345 H232R) above, with G82A, R145Q counted along it
Structure (SMILES),ΔTm at 100 µM [1],DSF huSTING (WT) ΔTm [2],EC50 [3],EC50 [4],Kd [5],Kd [6],ΔTm at 100 µM [2],DSF huSTING (HAQ) ΔTm [1]
"NC(=O)c1ccc2c(c1)nc(-c1c(C(=O)O)sc3c(F)ccc(Cl)c13)n2CCn1c(-c2c(C(=O)O)sc3c(F)ccc(Cl)c23)nc2cc(C(N)=O)ccc21 (single isomer, unassigned) [Example 2.1, 3,3′-(Ethane-1,2-diylbis(5-carbamoyl-1H-benzo[d]imidazole-1,2-diyl))bis(4-chloro-7-fluorobenzo[b]thiophene-2-carboxylic acid)]",32 °C,21 °C,1830 nM,518 nM,31 nM,7.4 nM,,
"CCOc1cccc2sc(C(=O)O)c(-c3nc4cc(C(N)=O)ccc4n3CCn3c(-c4c(C(=O)O)sc5cccc(OCC)c45)nc4cc(C(N)=O)ccc43)c12 [Example 24, 3,3′-(Ethane-1,2-diylbis(5-carbamoyl-1H-benzo[d]imidazole-1,2-diyl))bis(4-ethoxybenzo[b]thiophene-2-carboxylic acid)]",3.15 °C,,> 40000 nM,> 40000 nM,,37000 nM,-0.39 °C,
"NC(=O)c1ccc2c(c1)nc(-c1c(C(=O)O)sc3c(F)ccc(Cl)c13)n2CCn1c(-c2c(C(=O)O)sc3c(F)ccc(Cl)c23)nc2cc(C(N)=O)ccc21 (single isomer, unassigned) [Example 2.2, 3,3′-(Ethane-1,2-diylbis(5-carbamoyl-1H-benzo[d]imidazole-1,2-diyl))bis(4-chloro-7-fluorobenzo[b]thiophene-2-carboxylic acid)]",,8.85 °C,8320 nM,4300 nM,,124 nM,,22.2 °C
"NC(=O)c1ccc2c(c1)nc(-c1c(C(=O)O)sc3cccc(Br)c13)n2CCn1c(-c2c(C(=O)O)sc3cccc(Br)c23)nc2cc(C(N)=O)ccc21 (single isomer, unassigned) [Example 11.2, 3,3′-(Ethane-1,2-diylbis(5-carbamoyl-1H-benzo[d]imidazole-1,2-diyl))bis(4-bromobenzo[b]thiophene-2-carboxylic acid)]",,−5.12 °C,5480 nM,2830 nM,1430 nM,,,−1.75 °C
"Cc1cccc2sc(C(=O)O)c(-c3nc4cc(C(N)=O)ccc4n3CCn3c(-c4c(C(=O)O)sc5cccc(C)c45)nc4cc(C(N)=O)ccc43)c12 (single isomer, unassigned) [Example 15.1, 3,3′-(Ethane-1,2-diylbis(5-carbamoyl-1H-benzo[d]imidazole-1,2-diyl))bis(4-methylbenzo[b]thiophene-2-carboxylic acid)]",24.6 °C,,1540 nM,1010 nM,430 nM,,10.5 °C,
"COc1ccc(F)c2sc(C(=O)O)c(-c3nc4cc(C(N)=O)ccc4n3CCn3c(-c4c(C(=O)O)sc5c(F)ccc(OC)c45)nc4cc(C(N)=O)ccc43)c12 (single isomer, unassigned) [Example 13.2, 3,3′-(Ethane-1,2-diylbis(5-carbamoyl-1H-benzo[d]imidazole-1,2-diyl))bis(7-fluoro-4-methoxybenzo[b]thiophene-2-carboxylic acid)]",,−1.43 °C,> 40000 nM,> 40000 nM,2370 nM,,,0.89 °C
"NC(=O)c1ccc2c(c1)nc(-c1c(C(=O)O)sc3ccccc13)n2CCn1c(-c2c(C(=O)O)sc3ccccc23)nc2cc(C(N)=O)ccc21 [Example 9, 3,3′-(Ethane-1,2-diylbis(5-carbamoyl-1H-benzo[d]imidazole-1,2-diyl))bis(benzo[b]thiophene-2-carboxylic acid)]",6.7 °C,,> 40000 nM,3650 nM,,10100 nM,2.36 °C,
